From patent publication US8357634B2, “N-alkoxycarboxamides and their use as microbiocides” (Syngenta Crop Protection LLC, priority 2009, dated 2013)

Experiments:
Septoria tritici = experiment: Example B-3: Action against Septoria tritici, fungal growth assay; format: cell-based; conditions: Zymoseptoria tritici; 0.002% active ingredient; PDB broth, 24° C., photometric after 72 hrs
Description: (§1) Action Against Septoria tritici—Fungal Growth Assay Conidia of the fungus from cryogenic storage were directly mixed into nutrient broth (PDB potato dextrose broth). After placing a (DMSO) solution of the test compounds (0.002% active ingredient) into a microtiter plate (96-well format) the nutrient broth containing the fungal spores was added. The test plates were incubated at 24° C. and the inhibition of growth was determined photometrically after 72 hrs. The activity of a compound was expressed as fungal growth inhibition (0=no growth inhibition, ratings of 80% to 99% mean good to very good inhibition, 100%=complete inhibition).

[1] = test system: Monographella nivalis (anamorph: Fusarium nivale, Microdochium nivale); experiment: Example B-4: Action against Monographella nivalis, fungal growth assay; format: cell-based; conditions: 0.002% active ingredient, PDB broth, 24° C., photometric after 72 hrs
Description: as §1, with “Monographella nivalis (anamorph: Fusarium nivale, Microdochium nivale; Snow Mould)—Fungal” for “Septoria tritici—Fungal”, “DMSO-solution” for “(DMSO) solution”, “measured” for “determined”, “hrs” for “hrs. The activity of a compound was expressed as fungal growth inhibition”

[2] = test system: Erysiphe graminis f. sp. tritici; experiment: Example B-5: Action against Erysiphe graminis f. sp. tritici (wheat powdery mildew), wheat leaf segments; format: in vivo; conditions: Blumeria graminis, foliar, 168 h, 0.02% active ingredient, 7 days after inoculation, read-out: preventive fungicidal activity (inhibition)
Description: Action Against Erysiphe graminis f. sp. tritici (Wheat Powdery Mildew) Wheat leaf segments were placed on agar in multiwell plates (24-well format) and sprayed with test solutions (0.02% active ingredient). After drying, the leaf disks were inoculated with a spore suspension of the fungus. After appropriate incubation the activity of a compound was assessed 7 days after inoculation as preventive fungicidal activity.

Puccinia recondita = experiment: Example B-10: Puccinia recondita / wheat / leaf disc preventative (comparative); format: in vivo; conditions: 8 dpi
Description: Puccinia recondita/Wheat/Leaf Disc Preventative (Brown Rust) Wheat leaf segments were placed on agar in multiwell plates (24-well format) and sprayed with test solutions. After drying, the leaf disks were inoculated with a spore suspension of the fungus. After appropriate incubation the activity of a compound was assessed 8 dpi (days after inoculation) as preventive fungicidal activity.

[3] = test system: Phaeosphaeria nodorum (Septoria nodorum); experiment: Example B-11: Phaeosphaeria nodorum / wheat / leaf disc preventative (comparative); format: in vivo; conditions: 4 dpi
Description: Phaeosphaeria nodorum (Septoria nodorum)/Wheat/Leaf Disc Preventative (Glume Blotch) Wheat leaf segments were placed on agar in a multiwell plate (24-well format) and sprayed with test solutions. After drying, the leaf disks were inoculated with a spore suspension of the fungus. After appropriate incubation the activity of a compound was assessed 4 dpi (days after inoculation) as preventive fungicidal activity.

Alternaria solani = experiment: Example B-13: Alternaria solani / tomato / leaf disc (comparative); format: in vivo; conditions: 4 dpi
Description: Alternaria solani/Tomato/Leaf Disc (Early Blight) Tomato leaf disks were placed on water agar in multiwell plates (24-well format) and sprayed with test solutions. After drying, the leaf disks were inoculated with a spore suspension of the fungus. After appropriate incubation the activity of a compound was assessed 4 dpi (days after inoculation) as preventive fungicidal activity.

[4] = test system: Botryotinia fuckeliana (Botrytis cinerea); experiment: Example B-14: Botryotinia fuckeliana (Botrytis cinerea) / liquid culture (comparative); format: cell-based; conditions: 24° C., photometric after 3-4 days, read-out: inhibition of growth
Description: (§2) Botryotinia fuckeliana (Botrytis cinerea)/Liquid Culture (Gray Mould) Conidia of the fungus from cryogenic storage were directly mixed into nutrient broth. After placing a (DMSO) solution of the test compounds into a microtiter plate (96-well format) the nutrient broth containing the fungal spores was added. The test plates were incubated at 24° C. and the inhibition of growth is determined photometrically after 3-4 days.

[5] = test system: Mycosphaerella arachidis (Cercospora arachidicola); experiment: Example B-15: Mycosphaerella arachidis / liquid culture (comparative); format: cell-based; conditions: 24° C., photometric after 6-7 days, read-out: inhibition of growth
Description: as §2, with “Mycosphaerella arachidis (Cercospora arachidicola)/Liquid” for “Botryotinia fuckeliana (Botrytis cinerea)/Liquid”, “(Early Leaf Spot)” for “(Gray Mould)”, “broth (PDB potato dextrose broth).” for “broth.”, “measured” for “determined”, “6-7” for “3-4”

[6] = test system: Mycosphaerella praminicola (Seotoria tritici); experiment: Example B-16: Mycosphaerella graminicola (Septoria tritici) / liquid culture (comparative); format: cell-based; conditions: 96 h, 24° C., photometric after 4 days, read-out: inhibition of growth
Description: as §2, with “Mycosphaerella praminicola (Seotoria tritici)/Liquid” for “Botryotinia fuckeliana (Botrytis cinerea)/Liquid”, “(Septoria Blotch)” for “(Gray Mould)”, “broth (PDB potato dextrose broth).” for “broth.”, “measured” for “determined”, “4” for “3-4”

Gaeumannomyces graminis = experiment: Example B-17: Gaeumannomyces graminis / liquid culture (comparative); format: cell-based; conditions: 24 C, photometric after 2-3 days, read-out: inhibition of growth
Description: Gaeumannomyces graminis/Liquid Culture (Take-All of Cereals) Mycelial fragments of the fungus from cryogenic storage were directly mixed into nutrient broth (PDB potato dextrose broth). After placing a (DMSO) solution of the test compounds into a microtiter plate (96-well format) the nutrient broth containing the fungal spores was added. The test plates were incubated at 24 C and the inhibition of growth was determined photometrically after 2-3 days.

[7] = test system: Monopraphella nivalis (Microdochium nivale); experiment: Example B-18: Monographella nivalis (Microdochium nivale) / liquid culture (comparative); format: cell-based; conditions: 24° C., photometric after 4-6 days, read-out: inhibition of growth
Description: as §2, with “Monopraphella nivalis (Microdochium nivale)/Liquid” for “Botryotinia fuckeliana (Botrytis cinerea)/Liquid”, “(Foot Rot Cereals” for “(Gray Mould)”, “broth (PDB potato dextrose broth).” for “broth.”, “measured” for “determined”, “4-6” for “3-4”

melting point: 135 to 141 °C
Structure (SMILES): CON(C(=O)c1cn(C)nc1C(F)F)C(C)c1ccc(Cl)cc1Cl (stereo not shown) [Compound 1.023]
inhibition at 0.002 % strength (Septoria tritici): ≥ 80%
inhibition at 0.002 % strength [1]: ≥ 50%
inhibition at 0.02 % strength [2]: ≥ 80%
preventive fungicidal activity (Puccinia recondita; 20 ppm): 0
preventive fungicidal activity (Puccinia recondita; 60 ppm): 50
preventive fungicidal activity (Puccinia recondita; 200 ppm): 70
preventive fungicidal activity ([3]; 20 ppm): 70
preventive fungicidal activity ([3]; 60 ppm): 90
preventive fungicidal activity ([3]; 200 ppm): 90
preventive fungicidal activity (Alternaria solani; 20 ppm): 90
preventive fungicidal activity (Alternaria solani; 60 ppm): 100
preventive fungicidal activity (Alternaria solani; 200 ppm): 100
inhibition at 20 ppm ([4]; 20 ppm): 20%
inhibition at 60 ppm ([4]; 60 ppm): 100%
inhibition at 200 ppm ([4]; 200 ppm): 100%
inhibition at 6 ppm ([5]; 6 ppm): 100%
inhibition at 20 ppm ([5]; 20 ppm): 100%
inhibition at 60 ppm ([5]; 60 ppm): 100%
inhibition at 6 ppm ([6]; 6 ppm): 100%
inhibition at 20 ppm ([6]; 20 ppm): 100%
inhibition at 60 ppm ([6]; 60 ppm): 100%
inhibition at 6 ppm (Gaeumannomyces graminis; 6 ppm): 0%
inhibition at 20 ppm (Gaeumannomyces graminis; 20 ppm): 0%
inhibition at 60 ppm (Gaeumannomyces graminis; 60 ppm): 50%
inhibition at 6 ppm ([7]; 6 ppm): 0%
inhibition at 20 ppm ([7]; 20 ppm): 0%
inhibition at 60 ppm ([7]; 60 ppm): 50%
